Results from ChEMBL document CHEMBL4680133, “Novel nitroimidazole derivatives evaluated for their trypanocidal, cytotoxic, and genotoxic activities” (Eur J Med Chem, 2020).

Assay: Genotoxicity in human HepG2 assessed as survival at 4270 uM measured after 24 hrs by micronucleus test (reference value: 100%)
Type: toxicity, cell-based
Settings: HepG2 cells, read-out: Survival

Cn1cnc([N+](=O)[O-])c1-n1cc(C2CC2)nn1 showed a viability at 24 h, 4270 µM of 91%.
